From patent publication US11905268B2, “Anthranilic acid derivatives and their use in the treatment of human cancers” (UNIVERSITY OF CENTRAL FLORIDA RESEARCH FOUNDATION, INC., priority 2018, dated 2024)
Where two headings read alike, the source gives them in different places.

Tests used:
CHO cells [1] = test: Ant44 rescue assay in CHO cells (Assay 1); format: cell-based, Chinese hamster; conditions: for IC50 / EC50: Cricetulus griseus; for Ant44 EC40: Table 1
Protocol: CHO K1 cells were grown in growth medium (RPMI+10% FBS+1×P/S+1% l-glutamine) to 70% confluency, washed in PBS and trypsinized. Cells were plated in assay medium (serum free RPMI+2% FBS+1×l-glutamine+1×P/S+[…] aminoguanidine) at 50000 cells/mL for 200 cells per well in 4 ul using a Thermo Multidrop Combi into a 1536-well white Aurora plate.
Ant44 is a cytotoxic polyamine, i.e., N^1-(9-anthracenyl)-homospermidine. A non-toxic PTI compound would block entry or intracellular trafficking of the Ant44 toxin and rescue the cells back to high viability. Therefore, this screen tested for compounds which rescued cells from Ant44 toxicity. […] This was followed by adding 10 uL of 10 uM Ant44 (FAC 2 uM) in assay medium with a Beckman BioRAPTR FRD dispenser or 10 uL of cells added in assay medium (positive control).

CHO cells [2] = test: Cytotoxicity screen in CHO cells; conditions: for IC50 at 48 h: Chinese hamster, CHO K1 cells; for Tox (Ant44) / tox (DFMO Assay): toxic above the stated concentration; for Tox (Ant44): listed with Ant44 assay; for tox (DFMO Assay): listed with DFMO assay
Protocol: CHO K1 cells were grown in growth medium to 70% confluency and washed in PBS and trypsinized. […] Cells were spun at 100×g for 1 minute and incubated at 37° C. in a humidified CO2 incubator for 24 hours. […] Cellular ATP content was then assayed by adding 3 uL of ATPLite with a Beckman BioRAPTR FRD dispenser and incubated for 10 minutes at room temperature. Plates were spun at 200×g for 1 minute and read on a Perkin Elmer Viewlux multimode plate reader using luminescence mode. This assay was used for testing dose-response of dry powders.
CHO K1 cells were grown in growth medium to 70% confluency and washed in PBS and trypsinized. Cells were plated in assay medium at 10000 cells/mL for 200 cells per well using a Thermo Multidrop Combi in 20 uL into a white Greiner plate. Cells were spun at 100×g for 1 minute and incubated at 37° C. in a humidified CO2 incubator for 24 hours. […] This was followed by adding by 10 μL of assay medium to all wells with a Beckman BioRAPTR FRD dispenser. The plates were spun at 200×g for 1 minute and incubated at 37° C. in a humidified 5% CO2 incubator for 48 hours. Cellular ATP content was then assayed by adding 20 μL of ATPLite with a Beckman BioRAPTR FRD dispenser and incubated for 10 min at room temperature. Plates were spun at 200×g for 1 minute and read on a Perkin Elmer Envision for multimode plate reader using luminescence mode. Duplicates were run for each compound concentration, and the curves represent the average of the duplicates as percent viability.
The final compound concentration was either 20 μM or 10 μg/mL (depending upon the compound source). A successful PTI in Assay 1 would block the uptake of the toxic Ant44 probe and rescue the cells back to >90% relative growth vs an untreated control. It was critical to also evaluate the toxicity of the PTI by itself as a toxic PTI would give a false negative in Assay1 (and a false positive in Assay 2). […] Assay 2 then evaluated the ability of the compound to inhibit the uptake of a rescuing dose of Spermidine (Spd, 1 μM) into DFMO-treated CHO cells.

[3] = tested on: DFMO treated Chinese hamster ovary (CHO) cells; test: DFMO/spermidine rescue assay in CHO cells (Assay 2); format: cell-based; conditions: for Active in DFMO assay?: Table 3, in CHO; for DFMO/CHO IC50: Table 5B
Protocol: In the reconfirmation assay compounds were run in quadruplicate. […] A PTI compound is expected to block the entry or disrupt the intracellular trafficking of spermidine and inhibit the ability of spermidine to rescue the growth or viability of DFMO treated cells.
DFMO/Spermidine assay Here cells were treated with an inhibitor of polyamine biosynthesis (DFMO) and rescued back to high viability by the presence of exogenous polyamine (spermidine). Putative PTI compounds were screened for their ability to block the entry or intracellular trafficking of exogenous spermidine (or otherwise disrupt the intracellular trafficking of spermidine) by measuring cell viability in the presence of DFMO+spermidine+PTI compound. […] This was followed by adding 10 μL of […] and 5 μM spermidine (FAC 5 mM DFMO and 1 μM spermidine) in assay medium with a Beckman BioRAPTR FRD dispenser or 10 μL of 5 mM DFMO added in assay medium (positive control). […] A PTI compound is expected to block the entry or disrupt the intracellular trafficking of spermidine and inhibit the ability of spermidine to rescue the growth or viability of DFMO treated cells Cytotoxicity

[4] = CHO, Table 7, read-out: SAR IC50 Ant44 assay
[5] = Table 1 HTS top hits, CHO cells, read-out: Ant44 EC50
[6] = Cricetulus griseus, CHO, Table 7, read-out: SAR IC50 DFMO assay
[7] = Cricetulus griseus, Table 1 HTS top hits, CHO cells, read-out: DFMO Assay IC50
[8] = Table 1 HTS top hits, CHO cells
[9] = CHO, Table 3, read-out: Ant44 rescue EC50 CHO
[10] = Table 5B, CHO cells, read-out: Ant44 IC50

SMILES | IC50 (CHO cells [1]; [4]) [µM] | IC50 at 48 h (CHO cells [2]) [µM] | Tox (Ant44) (CHO cells [2]; CHO cells) | tox (DFMO Assay) (CHO cells [2]; CHO cells) | IC50 [3, 6] [µM] | IC50 [3, 7] [µM] | other results
COc1ccccc1C(=O)Nc1ccc(N2CCN(c3cc(Cl)ccc3C)CC2)cc1C(=O)O [SBI-0351221, 5-(4-(5-chloro-2-methylphenyl)piperazin-1-yl)-2-(2-methoxybenzamido)benzoic acid] | 2 | 19 | SBI- 0351221.0002 (10 EC50) Tox >10 μM | SBI- 0351221.0002 (IC50 ~10), toxic >10 μM | 21 | ~10 | EC50 (CHO cells [1]; [5]): 10 µM
CCOC(=O)N1CCN(c2ccc(NC(=O)c3ccc(OC)cc3)c(C(=O)O)c2)CC1 [SBI-0800692] | > 40 | 34 | – | SBI- 0800692.0001 (IC50 ~20, tox >20) μM | > 40 | ~20 | Ant44 EC40 (CHO cells [1]; CHO cells): SBI- 0800692.0001 (EC40 at 31) μM
COc1ccc(C(=O)Nc2ccc(N3CCC(C(N)=O)CC3)cc2C(=O)O)cc1 [SBI-0800693] | > 40 | – | – | SBI- 0800693.0001 (Ic50 ~10 μM, tox >10 μM) | > 40 | ~10 | Ant44 EC50 (CHO cells [1]; [8]): SBI- 0800693.0001 (NO EFFECT)
CCN(CC)C(=O)CN1CCN(c2ccc(NC(=O)c3ccc(OC)cc3)c(C(=O)O)c2)CC1 [SBI-0800690] | > 40 | 28 | – | SBI- 0800690.0001 (IC50 ~20, tox >20) μM | > 40 | ~20 | Ant44 EC50 (CHO cells [1]; [8]): SBI- 0800690.0001 No effect
COc1ccccc1C(=O)Nc1ccc(N2CCN(CCc3ccccc3)CC2)cc1C(=O)O [SBI-0814415, 2-(2-methoxybenzamido)-5-(4-phenethylpiperazin-1-yl)benzoic acid] | > 40 | > 40 | – | – | > 40 | – | –
COc1ccccc1C(=O)Nc1ccc(N2CCN(c3ccccn3)CC2)cc1 [SBI-0814417, 2-methoxy-N-(4-(4-(pyridin-2-yl)piperazin-1-yl)phenyl)benzamide] | > 40 | 14 | – | – | > 40 | – | –
COc1ccc(C(=O)Nc2ccc(N3CCN(c4ccc(C(C)=O)cc4)CC3)cc2C(=O)O)cc1 [SBI-0800674] | > 40 | 20 | > 5 µM | > 10 µM | 21 | ~5 | Ant44 EC50 (CHO cells [1]; [8]): no effect
COc1ccc(C(=O)Nc2ccc(N3CCN(c4ccccc4)CC3)cc2C(=O)O)cc1 [SBI-0800679] | > 40 | – | SBI- 0800679.0001 EC40 near 20 μM, Tox >20 μM) | > 15 µM | 15 | 10 to 15 | EC50 (CHO cells [1]; CHO, Table 2, Active in Ant44 assay?, read-out: Ant44 assay EC50 in CHO): > 10 µM; Ant44 EC40 (CHO cells [1]; CHO cells): SBI- 0800679.0001 EC40 near 20 μM, Tox >20 μM); Active in Ant44 assay? (CHO cells [1]; Table 2, in CHO): Yes; Ant44 IC50 (CHO cells [1]; Table 4B, CHO cells): trace; general toxicity (CHO cells [2]; CHO cells): modest level of toxicity; CHO MTD (CHO cells [2]; hamster): 10 µM; CHO MTD EC50 (CHO cells [2]; hamster): (17) μM; activity in DFMO assay ([3]; CHO cells): active; EC50 ([3]; Cricetulus griseus, CHO, Table 2): 10 µM; IC50 ([3]; Cricetulus griseus, CHO, Table 4B, read-out: DFMO/CHO IC50): 15 µM
COc1ccc(C(=O)Nc2ccc(N3CCCN(c4ncccn4)CC3)cc2C(=O)O)cc1 [SBI-0800691] | 12 | > 40 | No tox | No tox | > 40 | – | activity in Ant44 assay (CHO cells [1]; CHO cells): robust Ant44 uptake inhibition activity; EC50 (CHO cells [1]; [9]): ~11 µM; EC50 (CHO cells [1]; [5]): 10 to 15 µM; IC50 (CHO cells [1]; [10]): 12 µM; MTD CHO (CHO cells [2]; hamster): >32 µM; DFMO Assay IC50 [3, 8]: No effect; Active in DFMO assay? [3]: No in CHO; DFMO/CHO IC50 [3]: trace
COC(=O)c1cc(N2CCN(c3cc(Cl)ccc3C)CC2)ccc1NC(=O)c1ccccc1OC [SBI-0801724, methyl 5-(4-(5-chloro-2-methylphenyl)piperazin-1-yl)-2-(2-methoxybenzamido)benzoate] | > 40 | > 40 | – | – | > 40 | – | –
Cc1ccc(CC(=O)Nc2ccc(N3CCN(c4ccccc4Cl)CC3)cc2C(=O)O)cc1 [SBI-0800675] | 16 | > 40 | SBI- 0800675.0001 (31 EC50) Tox >31 μM | no tox | 32 | > 25 | EC50 (CHO cells [1]; [5]): 31 µM
COc1ccccc1C(=O)Nc1ccc(N2CCN(c3ccccn3)CC2)cc1C(=O)O [SBI-0801308, 2-(2-methoxybenzamido)-5-(4-(pyridin-2-yl)piperazin-1-yl)benzoic acid] | 4 | 21 | > 31 µM | > 20 µM | > 40 | 10 to 20 | EC50 (CHO cells [1]; [9]): 10 µM; EC50 (CHO cells [1]; [5]): 5 to 10 µM; IC50 (CHO cells [1]; [10]): 3.6 µM; CHO MTD EC50 (CHO cells [2]; hamster): (22) uM; MTD CHO (CHO cells [2]; hamster): ~10 µM; Active in DFMO assay? [3]: No in CHO; DFMO/CHO IC50 [3]: trace
Cc1cccc(N2CCN(c3ccc(NC(=O)c4ccccc4F)cc3C(=O)O)CC2C)c1 (centres unmarked) [SBI-0800663] | – | > 40 | – | – | > 40 | – | –
COc1ccc(C(=O)Nc2ccc(N3CCC(N4CCCCC4)CC3)cc2C(=O)O)cc1 [SBI-0800694] | – | > 40 | – | – | > 40 | – | –
Cc1ccc(C)c(N2CCN(c3ccc(N4C(=O)CC(c5ccccc5)C4=O)cc3[N+](=O)[O-])CC2)c1 (centres unmarked) [SBI-0372958] | – | 32 | – | – | 27 | – | –
NCCC[C@](N)(C(=O)O)C(F)F [DFMO, alpha-difluoromethylornithine, reference compound] | – | – | – | – | – | – | IC50 (CHO cells [2]; Cricetulus griseus, CHO, 48 h, read-out: 48 h IC50): 4200 µM
